Source: patent publication US7951815B2, “Substituted 1,4,8-triazaspiro [4,5]decan-2-one compounds” (Gruenenthal GmbH, priority 2004, dated 2011)
Where “and” joins values, the source holds several entries; their conditions need not be identical. Identical values can stand only once. Like-named read-outs stand apart in the source and are kept apart here.

What was measured:
[1] = tested on: batrachotoxin (BTX) binding site of the sodium channel; experiment: Affinity to the batrachotoxin (BTX) binding site of the sodium channel; settings: rat cerebrocortex synaptosomes, test concentration not given
male NMRI mice = experiment: Analgesic test using the phenylquinone-induced writhing test on mice; assay type: in vivo; settings: 10 mg/kg intravenous
Method: The analysis of analgesic activity is carried out using the phenylquinone-induced writhing assay in mice, modified as described in the article by I. C. Hendershot and J. Forsaith ((1959) in J. Pharmacol. Exp. Ther. 125, 237-240).
For the present purpose, male NMRI mice are used having a weight of from 25 to 30 g. Groups of 10 animals per substance dose receive, 10 minutes after an intravenous dose of test substances, an intraperitoneal administration of 0.3 ml/mouse of a 0.02% strength aqueous solution of phenylquinone (phenylbenzoquinone, obtainable from Sigma, Deisenhofen; solution produced with the addition of 5% of ethanol and storage in a water bath at 45° C.). The animals are placed individually in observation cages. Using a pushbutton counter, the number of pain-induced stretching movements (so-called writhing reactions=straightening of the body accompanied by stretching of the rear extremities) was counted over a period of from 5 to 20 minutes following the administration of phenylquinone. The control is provided by animals receiving only physiological saline. All substances are tested using the standard dosage of 10 mg/kg.

human μ-opioid receptor = human μ-opioid receptor (Homo sapiens, UniProt P35372); experiment: Affinity to the human μ-opioid receptor ([3H]-naloxone displacement); settings: for μ (Naloxone), 1 μM, % inhibition: Table II, [3H]-naloxone; for inhibition at 1 µM: read-out: μ (Naloxone), 1 μM, % inhibition
Method: The receptor affinity to the human μ-opioid receptor is determined in a homogeneous batch in microtiter plates. For this purpose, dilution series of the substances to be tested are incubated at room temperature for 90 minutes in a total volume of 250 μL with a receptor membrane preparation (15-40 μg of protein/250 μL of incubation batch) of CHO-K1 cells which express the human μ-opioid receptor (RB-HOM receptor membrane preparation supplied by NEN, Zaventem, Belgium) in the presence of 1 nmol/L of the radioactive ligand [^3H]-naloxone (NET 719, supplied by NEN, Zaventem, Belgium), and of 1 mg of WGA-SPA beads (wheat germ agglutinin SPA beads supplied by Amersham/Pharmacia, Freiburg, Germany). As incubation buffer, 50 mmol/L of tris HCl supplemented with 0.05% (weight/volume) of sodium azide and with 0.06% (weight/volume) of bovine serum albumin is used. For determination of the nonspecific binding, 25 μmol/L of naloxone are added. On completion of the ninety-minute incubation time, the microtiter plates are centrifuged for 20 minutes at 1000 g and the radioactivity is measured in a β-counter (Microbeta-Trilux, supplied by PerkinElmer Wallac, Freiburg, Germany).
Based on the percentage displacement produced by different concentrations of the test substances, IC50 inhibitory concentrations are calculated which cause a 50 percent displacement of the radioactive ligand. As a result of recalculation using the Cheng-Prusoff relationship, the Ki values for the test substances can be obtained, as described in the publication of Y. Cheng, W. H. Prusoff, 1973, Biochem. Pharmacol., 22, pages 3099-3108.

5-HT transporter = target: T1, 5-HT transporter (Rattus norvegicus, UniProt P31652); experiment: Inhibition of 5-HT uptake in rat brain synaptosomes; assay type: biochemical; settings: rat, 1 μM; for inhibition at 1 µM: read-out: Uptake 5-HT, % inhibition
T1 construct: synaptosomes of rat brain areas are freshly isolated; from tissue; host or cells: rat brain synaptosomes (P2 fraction) from marrow and pons

NA transporter = experiment: Inhibition of noradrenaline uptake in rat brain synaptosomes; assay type: biochemical; settings: Table III

T1 sequence (P31652 whole entry): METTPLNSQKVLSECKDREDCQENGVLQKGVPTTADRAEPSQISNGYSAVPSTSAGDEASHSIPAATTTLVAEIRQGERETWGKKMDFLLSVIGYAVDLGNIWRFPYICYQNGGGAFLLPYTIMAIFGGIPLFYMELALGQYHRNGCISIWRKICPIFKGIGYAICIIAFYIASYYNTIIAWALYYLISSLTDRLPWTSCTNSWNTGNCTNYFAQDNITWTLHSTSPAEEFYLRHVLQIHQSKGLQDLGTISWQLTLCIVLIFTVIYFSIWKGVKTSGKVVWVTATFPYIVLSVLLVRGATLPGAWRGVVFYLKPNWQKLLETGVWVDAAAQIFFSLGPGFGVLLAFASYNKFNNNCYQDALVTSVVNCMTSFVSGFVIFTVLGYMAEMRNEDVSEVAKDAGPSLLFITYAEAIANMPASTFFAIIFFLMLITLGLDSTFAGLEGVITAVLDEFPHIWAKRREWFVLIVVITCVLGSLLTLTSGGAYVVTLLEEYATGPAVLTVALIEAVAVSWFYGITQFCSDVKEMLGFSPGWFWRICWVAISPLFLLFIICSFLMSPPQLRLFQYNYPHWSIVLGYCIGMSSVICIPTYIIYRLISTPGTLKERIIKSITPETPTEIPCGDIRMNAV
Sequence of human μ-opioid receptor (P35372 whole entry): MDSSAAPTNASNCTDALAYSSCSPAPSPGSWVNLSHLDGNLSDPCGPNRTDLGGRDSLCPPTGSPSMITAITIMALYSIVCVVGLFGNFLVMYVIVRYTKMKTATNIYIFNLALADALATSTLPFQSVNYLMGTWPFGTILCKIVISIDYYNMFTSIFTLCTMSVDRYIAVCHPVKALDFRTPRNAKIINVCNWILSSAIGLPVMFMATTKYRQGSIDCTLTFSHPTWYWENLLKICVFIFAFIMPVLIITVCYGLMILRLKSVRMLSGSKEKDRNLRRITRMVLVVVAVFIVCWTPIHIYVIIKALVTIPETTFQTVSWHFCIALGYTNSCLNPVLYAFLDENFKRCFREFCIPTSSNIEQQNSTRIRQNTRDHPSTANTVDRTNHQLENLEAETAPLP

## Cl.O=C(COc1ccc(Cl)cc1)N1CCC2(CC1)N[C@@H](Cc1ccccc1)C(=O)N2Cc1ccccc1 [Example 55, 1,3-(S)-dibenzyl-8-[2-(4-chlorophenoxy)acetyl]-1,4,8-triazaspiro[4,5]decan-2-one hydrochloride]
[1]; Table II
  BTX inhibition: 64
Male NMRI mice
  % Inhibition of the writhing reaction (Dosage in mg/kg intravenous): 45 (10) %

## Cl.O=C1NC2(CCN(C(=O)c3ccc(Cl)cc3)CC2)N[C@H]1Cc1ccccc1 (racemic) [Example 10, 3-(S,R)-Benzyl-8-(4-chlorobenzoyl)-1,4,8-triazaspiro[4,5]decan-2-one hydrochloride]
[1]; Table II
  BTX inhibition: 53
Human μ-opioid receptor
  μ (Naloxone), 1 μM, % inhibition: 94%

## CCC(CC)C(=O)N1CCC2(CC1)NC(=O)[C@H](Cc1ccccc1)N2.Cl [Example 2, 3-(S)-Benzyl-8-(2-ethylbutyryl)-1,4,8-triazaspiro[4,5]decan-2-one hydrochloride]
Male NMRI mice
  % Inhibition of the writhing reaction (Dosage in mg/kg intravenous): 51 (10) %

## Cl.O=C(COc1ccccc1)N1CCC2(CC1)N[C@@H](Cc1ccccc1)C(=O)N2Cc1ccccc1 [Example 57, 1,3-(S)-dibenzyl-8-(2-phenoxyacetyl)-1,4,8-triazaspiro[4,5]decan-2-one hydrochloride]
[1]; Table II
  BTX inhibition: 44
Human μ-opioid receptor
  inhibition at 1 µM: 60%
5-HT transporter; Table II
  inhibition at 1 µM: 72%

## CCC(CC)C(=O)N1CCC2(CC1)N[C@@H](Cc1ccccc1)C(=O)N2Cc1ccccc1.Cl [Example 25, 1,3-(S)-dibenzyl-8-(2-ethylbutyryl)-1,4,8-triazaspiro[4,5]decan-2-one hydrochloride]
[1]; Table II
  BTX inhibition: 47
Male NMRI mice
  % Inhibition of the writhing reaction (Dosage in mg/kg intravenous): 42 (10) %
Human μ-opioid receptor
  inhibition at 1 µM: 66%
5-HT transporter; Table II
  inhibition at 1 µM: 66%

## Cl.O=C(c1ccc(C(F)(F)F)c(F)c1)N1CCC2(CC1)N[C@@H](Cc1ccccc1)C(=O)N2Cc1ccccc1 [Example 53, 1,3-(S)-dibenzyl-8-(3-fluoro-4-trifluoromethylbenzoyl)-1,4,8-triazaspiro[4,5]decan-2-one hydrochloride]
[1]; Table II
  BTX inhibition: 48
Male NMRI mice
  % Inhibition of the writhing reaction (Dosage in mg/kg intravenous): 30 (10) %

## Cl.O=C(c1ccc(Cl)cc1)N1CCC2(CC1)N[C@@H](Cc1ccccc1)C(=O)N2Cc1ccccc1 (racemic) [Example 29, 1,3-(S,R)-dibenzyl-8-(4-chlorobenzoyl)-1,4,8-triazaspiro[4,5]decan-2-one hydrochloride]
[1]; Table II, hydrochloride
  BTX inhibition: 65 and 60
Human μ-opioid receptor
  μ (Naloxone), 1 μM, % inhibition: 38%
5-HT transporter; Table II, hydrochloride
  Uptake 5-HT, rat, 1 μM, % inhibition: 80% and 45%

## CCC(CC)C(=O)N1CCC2(CC1)N[C@@H](Cc1ccccc1)C(=O)N2Cc1ccc(F)cc1.Cl (racemic) [Example 31, 3-(S,R)-benzyl-8-(2-ethylbutyryl)-1-(4-fluorobenzyl)-1,4,8-triazaspiro[4,5]decan-2-one hydrochloride]
[1]; Table II
  BTX inhibition: 61
Male NMRI mice
  % Inhibition of the writhing reaction (Dosage in mg/kg intravenous): 36 (10) %
5-HT transporter; Table II
  Uptake 5-HT, rat, 1 μM, % inhibition: 34%

## CCOC(=O)CCC(=O)N1CCC2(CC1)NCC(=O)N2Cc1ccccc1F [Example 270, Ethyl 4-[1-(2-fluorobenzyl)-2-oxo-1,4,8-triazaspiro[4,5]dec-8-yl]-4-oxo-butanate]
NA transporter
  Uptake (NA), rat, 10 μM, % inhibition: 37%
[1]; Table III
  BTX inhibition: 33
5-HT transporter; Table III
  inhibition at 1 µM: 31%

## CC(C)CC1NC2(CCN(C(=O)c3cccc(N(C)C)c3)CC2)N(Cc2ccccc2C#N)C1=O (centres unmarked) [Example 111, 2-[8-(3-Dimethylaminobenzoyl)-3-isobutyl-2-oxo-1,4,8-triazaspiro[4,5]dec-1-ylmethyl]benzonitrile]
NA transporter
  Uptake (NA), rat, 10 μM, % inhibition: 38%
[1]; Table III
  BTX inhibition: 42
5-HT transporter; Table III
  inhibition at 1 µM: 58%
